“And” between values parts separate entries of the source, which are not always exact repeats. Identical values can stand only once. “Also recorded” adds a separate entry of the source.
Assays:
pyruvate kinase (PK) [1] = assay: Pyruvate kinase activity in treated HepG2 WT cells; format: cell-based; settings: 20 µM for 4 h
Experimental: (§1) HepG2 WT and HepG2 KO cells were lysed, and protein lysate was prepared with CelLytic M (C2978, Sigma-Aldrich) lysis buffer. Protein lysate was treated with 10 µM of the drugs and the pyruvate kinase activity on protein lysate was measured using Pyruvate Kinase Assay Kit (ab83432, abeam) following manufacturer's instruction. 2×10^4 HepG2 WT cells and 1×10^5 HepG2 KO cells were seeded into a 96-well plate for measuring pyruvate kinase activity in the cells. The cells were treated with 10-20µM of drugs for 4h and washed with 250µl PBS. Cells were lysed with 50 µl PK assay buffer (ab83432, abcam) and start reaction and kinetic O.D measurement was performed on 50µl PK assay buffer containing the assay component (ab83432, abcam). O.D values were measured with microplate reader (Hidex Sense Beta Plus) at 570nm wavelength. DMSO was used as control.
(§2) The effect of the target compounds was studied on liver cell line HepG2. HepG2 expresses two different pyruvate kinases (PK), pyruvate kinase muscle (PKM2) and pyruvate kinase liver (PKL). While most cells express PKM, liver cells further express PKL. […] In addition to HepG2 KO cell, HepG2 wild-type (HepG2 WT) cells were also used.

pyruvate kinase (PK) [2] = assay: Pyruvate kinase activity in HepG2 WT protein lysate; format: biochemical; settings: 10 µM
Experimental: as §1, §2

PKL [3] = target: T1, PKL (Homo sapiens, UniProt P30613); assay: Cellular thermal shift assay (Cetsa), PKL; format: cell-based; settings: HepG2 WT cells, 10 and 20 µM for 2 h, heat shock 60°C 5 min
T1 construct: host or cells: HepG2 wild-type cells
T1 sequence (P30613 1-543 isoform P30613-2): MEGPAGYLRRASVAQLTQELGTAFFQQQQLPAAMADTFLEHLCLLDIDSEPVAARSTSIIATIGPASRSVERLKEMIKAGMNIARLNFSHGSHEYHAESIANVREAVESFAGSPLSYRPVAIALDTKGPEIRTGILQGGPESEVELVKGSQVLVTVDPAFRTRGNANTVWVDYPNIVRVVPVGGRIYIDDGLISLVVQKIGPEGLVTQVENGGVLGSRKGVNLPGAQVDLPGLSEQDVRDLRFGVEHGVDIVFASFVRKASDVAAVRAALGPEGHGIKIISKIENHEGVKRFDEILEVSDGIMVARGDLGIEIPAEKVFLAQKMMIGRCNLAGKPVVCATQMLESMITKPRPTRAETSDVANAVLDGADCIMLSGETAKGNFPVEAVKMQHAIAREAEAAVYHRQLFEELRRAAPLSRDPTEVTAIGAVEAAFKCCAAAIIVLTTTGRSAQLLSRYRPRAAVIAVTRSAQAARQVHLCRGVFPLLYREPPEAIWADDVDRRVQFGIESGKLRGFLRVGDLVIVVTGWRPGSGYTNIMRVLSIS
Experimental: (§3) HepG2 WT cells were trypsinized and transferred into 1.5ml tube at a concentration of 500,000 cells per ml. The cells were treated with 10µM and 20µM SET-62 in an 1.5 ml tube and incubated for 2 h at 37°C in an CO2 incubator. The tubes were exposed to heat shock at 60°C for 5 min with a pre-heated heat block. After centrifugation of the heated cells at 13,000 rpm for 1 min, the cells were lysed with 50 µl of Native lysis Buffer (ab156035, abeam). Centrifugation was performed again to purify soluble proteins in the lysed solution and 9 µl of each group were analysed using western blot. DMSO was used as control.

[4] = test system: fatty acid synthase (FASN); assay: Western blot of DNL steatosis model, FASN expression; format: cell-based; settings: 5 µM
Experimental: (§4) HepG2 wild type cells were purchased from genome engineering company Synthego. Cells were maintained with growth media RPMI 1640 (R2405, Sigma-Aldrich) and supplemented with 10 % fetal bovine serum (FBS, F7524, Sigma-Aldrich), 1 % penicillin-streptomycin (P/S media, P4333, Sigma-Aldrich). Steatosis induction media was prepared as DMEM high glucose (D0819, Sigma-Aldrich) with 10% FBS, 1% P/S media supplemented with 10µg/ml insulin (I9278, Sigma-Aldrich), and 10µM T0901317 (T2320, Sigma-Aldrich) for one week. HepG2 cells were seeded 6×10^4 cells per well into a 96-well plate for TAG and MTT assay after steatosis and 1×10^6 cells per well into 6-well plate for western blot analysis after steatosis. HepG2 cells were incubated with steatosis induce media (SM) for one week by 3 day + 2 day + 2 day with total three times media exchange.
(§5) After steatosis induction with designated concentration of compounds, whole cell lysate was prepared with CelLytic M (C2978, Sigma-Aldrich) buffer. SDS PAGE was performed on Mini-PROTEAN® TGX™ Precast Gels (Bio-Rad) and transferred using Trans-Blot® Turbo™ Transfer System (Bio-Rad). […] Protein band was detected with ImageQuantTMLAS 500 (29-0050-63, GE). […]

PKL [5] = assay: Western blot of DNL steatosis model, PKL expression; format: cell-based; settings: 5 µM
Experimental: as §4, §5

[6] = target: T2, pyruvate kinase liver (PKL) (Homo sapiens, UniProt P30613); assay: Pyruvate kinase activity in treated HepG2 PKM2 CRISPR KO cells; format: cell-based; settings: 20 µM for 4 h
T2 construct: endogenous in cells; host or cells: HepG2 PKM2 CRISPR KO (HepG2 KO) cells; lysate in CelLytic M or treated whole cells
T2 sequence (P30613 1-543 isoform P30613-2): as above
Experimental: as §1, §2

HepG2 cells [7] = assay: TAG measurement in DNL steatosis model; format: cell-based
Experimental: as §4
(§6) HepG2 cells were seeded at 6×10^4 cells per well into 96-well plate and induced steatosis for one week with designated concentration of small molecules (this will be referred to as a DNL steatosis model). After steatosis induction, cells were washed with 200 µl of PBS and triglyceride contents was measured by Triglyceride Assay Kit - Quantification (ab65336, Abeam) following manufacturer's instruction. Optical density (O.D) values were detected with microplate reader at 570 nm (Hidex Sense Beta Plus).
(§7) 5 mg/ml MTT (M2128, Sigma-Aldrich) solution in PBS (10 µL) was added to each well for MTT assay. After 1 hr, MTT solution and all media were removed from the wells. 100 µl of DMSO was added and mixed to dissolve the formazan crystals. Cell viability was analysed by measuring the absorbance of the dissolved formazan in a microplate reader at a wavelength of 570 nm with microplate reader (Hidex Sense Beta Plus). DMSO was used as control.

[8] = target: T2, pyruvate kinase liver (PKL); assay: Pyruvate kinase activity in HepG2 PKM2 CRISPR KO protein lysate; format: biochemical
Experimental: as §1, §2

PKM2 [9] = assay: Western blot of DNL steatosis model, PKM2 expression; format: cell-based; settings: 5 µM
Experimental: as §4, §5

PKM2 [10] = target: T3, PKM2 (Homo sapiens, UniProt P14618); assay: Cellular thermal shift assay (Cetsa), PKM2; format: cell-based; settings: HepG2 WT cells, 10 and 20 µM for 2 h, heat shock 60°C 5 min
T3 construct: host or cells: HepG2 wild-type cells
T3 sequence (P14618 2-531 limits assumed): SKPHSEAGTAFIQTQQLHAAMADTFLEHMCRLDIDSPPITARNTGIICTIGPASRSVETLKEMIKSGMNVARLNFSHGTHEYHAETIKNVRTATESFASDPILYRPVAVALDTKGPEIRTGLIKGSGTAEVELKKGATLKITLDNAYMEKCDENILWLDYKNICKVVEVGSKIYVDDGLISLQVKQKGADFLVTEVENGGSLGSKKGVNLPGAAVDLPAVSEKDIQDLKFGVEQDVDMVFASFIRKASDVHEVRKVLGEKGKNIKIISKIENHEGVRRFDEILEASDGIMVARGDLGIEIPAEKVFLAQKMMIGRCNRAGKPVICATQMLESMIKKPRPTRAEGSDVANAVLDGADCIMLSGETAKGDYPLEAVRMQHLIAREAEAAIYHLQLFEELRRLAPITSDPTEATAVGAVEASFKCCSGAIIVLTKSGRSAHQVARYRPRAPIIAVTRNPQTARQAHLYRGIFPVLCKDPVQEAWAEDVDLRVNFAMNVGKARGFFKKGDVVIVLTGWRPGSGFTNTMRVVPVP
Experimental: as §3

HepG2 cells [11] = assay: MTT assay (cell viability) in DNL steatosis model; format: cell-based
Experimental: as §4, §6, §7

Structure (SMILES): O=S1(=O)c2cc(O)c(O)cc2-c2ccc(C(F)(F)F)cc2N1Cc1ccccc1 [SET-62, 6-benzyl-2,'3-dihydroxy-8-(trifluoromethyl)-6H-dibenzo[c,e][1,2]thiazine 5,5-dioxide]
- effect on PK activity in HepG2 WT cells (in words) (pyruvate kinase (PK) [1]): slightly increased the PK activity
- increase in PK activity of HepG2 WT cells (pyruvate kinase (PK) [1]): 6% and 9.0%
- PK activity of HepG2 WT protein lysate (in words) (pyruvate kinase (PK) [2]; batches 4 and 5): highest inhibitory effect
- reduction in PK activity of HepG2 WT protein lysate (pyruvate kinase (PK) [2]; compared to the control (DMSO)): 59.9%
- decrease of the solubility of PKL (PKL [3]): ~ 38%
- FASN protein expression level [4]: decreased
- PKL protein expression level (PKL [5]): decreased
- decrease in PK activity of HepG2 KO cells [6]: 32.8% and 24.4%
- effect on PK activity in HepG2 KO cells (in words) [6]: decreased the PK activity
- TAG/MTT reduced to (HepG2 cells [7]; 0.625 µM for one week): 15.0%
- TAG/MTT ratio reduced to (HepG2 cells [7]; 5 µM for one week): 49.4% and 61.3%
- TAG content (in words) (HepG2 cells [7]; 10 µM for 1 week): reduced TAG content
- TAG/MTT ratio (HepG2 cells [7]; 10 µM for 1 week): 92.9%
- PK activity of HepG2 KO protein lysate (in words) ([8]; 10 µM, batches 4 and 5): highest inhibitory effect
- inhibition at 10 µM ([8]; compared to the control (DMSO), read-out: reduction in PK activity of HepG2 KO protein lysate): 57%
- expression of PKM2 (PKM2 [9]): slight increase
- increase of the solubility of PKM2 (PKM2 [10]): 12-18%
- cell viability (in words) (HepG2 cells [11]; 5 µM for 1 week (batch 4)): increased the cell viability
- cell viability (MTT assay, in words) (HepG2 cells [11]; 10 µM for 1 week): decreased cell viability; also recorded: strong toxicity
- cell viability / toxicity (in words) (HepG2 cells [11]; lower doses (5 µM, 2.5 µM, 1.25 µM, 0.625 µM), one week): did not exhibit any toxicity
